In US20110059043A1, “CHEMICAL COMPOUNDS” (priority 2009, published 2011):
pIC50: −log10 of the molar value.

Key:
[1] = target: T1, Recombinant HCV polymerase (BK strain) (Hepatitis C virus genotype 1b, UniProt P26663); assay: HCV polymerase enzyme assay (radiometric [33P]-UTP incorporation); type: biochemical, HCV 1b
T1 construct: Recombinant HCV polymerase (BK strain) was expressed and purified from E. coli with a 21 amino acid C-terminal deletion; His6; made in house; host or cells: E. coli
Method in brief: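 His6-tagged BK-strain NS5B lacking 21 C-terminal residues, expressed in E. coli, at 100 nM in Tris pH 7.5 with 5 mM MgCl2 and 3% DMSO. Substrates: 125 nM biotin-U13:0.63 μg/ml PolyA, 200 nM UTP plus [33P]-UTP; 100 min at 25° C. Incorporation read by streptavidin capture; IC50 from 8-point curve.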

[2] = test system: HCV replicon cells Huh 9B; assay: HCV replicon assay (luciferase); type: cell-based; details: Hepatitis C virus, reduction of replicon level by 50% vs untreated cell control, 72 h
[3] = test system: HCV replicon cells Huh 9B; type: cell-based; details: concentration reducing total cell area by 50% relative to DMSO controls; 72 h
Method in brief: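 Huh 9B replicon cells (luciferase-ubiquitin-neomycin fusion, EMCV-IRES-driven HCV polyprotein with adaptive mutations) were seeded from a 100,000 cells/ml suspension in G418-free medium, grown 24 h, then exposed to compound (dilutions at 1% DMSO) for 72 h at 37 °C. For toxicity, methylene blue staining was read at 620 nm and TD50 derived relative to DMSO controls.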

T1 sequence (P26663 2420-2989): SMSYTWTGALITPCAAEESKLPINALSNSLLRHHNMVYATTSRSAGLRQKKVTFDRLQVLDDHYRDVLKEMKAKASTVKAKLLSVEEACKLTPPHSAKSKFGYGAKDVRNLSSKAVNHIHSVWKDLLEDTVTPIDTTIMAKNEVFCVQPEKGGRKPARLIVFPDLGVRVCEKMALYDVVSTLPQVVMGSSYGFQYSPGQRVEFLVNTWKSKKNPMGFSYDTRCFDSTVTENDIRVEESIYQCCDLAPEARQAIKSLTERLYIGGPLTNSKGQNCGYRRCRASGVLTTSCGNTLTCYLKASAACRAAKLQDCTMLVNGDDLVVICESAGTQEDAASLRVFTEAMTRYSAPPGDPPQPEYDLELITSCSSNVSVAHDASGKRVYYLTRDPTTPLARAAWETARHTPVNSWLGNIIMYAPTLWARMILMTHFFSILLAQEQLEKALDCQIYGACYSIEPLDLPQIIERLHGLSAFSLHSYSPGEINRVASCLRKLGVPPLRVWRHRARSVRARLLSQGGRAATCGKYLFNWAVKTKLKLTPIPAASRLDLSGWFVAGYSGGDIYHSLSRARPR

Compound | pIC50 [1] | pIC50 [2] | Replicon Assay Value TD50 [3] [µM]
COCCCOc1ncc(F)cc1C(=O)NC1N=C(c2c(Cl)cc(Cl)cc2Cl)c2ccccc2NC1=O (stereo not drawn) [Example 38, 5-Fluoro-2-(3-methoxypropoxy)-N-(2-oxo-5-(2,4,6-trichlorophenyl)-2,3-dihydro-1H-benzo[e][1,4]diazepin-3-yl)nicotinamide] | 7.10 | 7.80 | 22.269
CCNC(=O)NCCOc1ccc(Cl)cc1C(=O)NC1N=C(c2c(Cl)cc(Cl)cc2Cl)c2ccccc2NC1=O (stereo not drawn) [Example 24, 5-Chloro-2-(2-(3-ethylureido)ethoxy)-N-(2-oxo-5-(2,4,6-trichlorophenyl)-2,3-dihydro-1H-benzo[e][1,4]diazepin-3-yl)benzamide] | 6.55 | 5.89 | 11.815
CCC(=O)NCCOc1ccc(Cl)cc1C(=O)NC1N=C(c2c(Cl)cc(Cl)cc2Cl)c2ccccc2NC1=O (stereo not drawn) [Example 22, 5-Chloro-N-(2-oxo-5-(2,4,6-trichlorophenyl)-2,3-dihydro-1H-benzo[e][1,4]diazepin-3-yl)-2-(2-propionamidoethoxy)benzamide] | 6.70 | 6.02 | 12.304
CCOc1cc(Cl)cc(Cl)c1C1=N[C@@H](NC(=O)c2cc(F)ccc2OCCOC)C(=O)Nc2ccccc21 [Example 70, (R)—N-(5-(2,4-Dichloro-6-ethoxyphenyl)-2-oxo-2,3-dihydro-1H-benzo[e][1,4]diazepin-3-yl)-5-fluoro-2-(2-methoxyethoxy)benzamide] | 5.27 | 6.13 | 24.592
COCCOc1ccccc1C(=O)NC1N=C(c2c(Cl)cc(Cl)cc2Cl)c2ccccc2NC1=O (stereo not drawn) [Example 15, 2-(2-Methoxyethoxy)-N-(2-oxo-5-(2,4,6-trichlorophenyl)-2,3-dihydro-1H-benzo[e][1,4]diazepin-3-yl)benzamide] | 6.52 | 6.96 | 25.845
CC(=O)NCCOc1ccc(Cl)cc1C(=O)NC1N=C(c2c(Cl)cc(Cl)cc2Cl)c2ccccc2NC1=O (stereo not drawn) [Example 21, 2-(2-Acetamidoethoxy)-5-chloro-N-(2-oxo-5-(2,4,6-trichlorophenyl)-2,3-dihydro-1H-benzo[e][1,4]diazepin-3-yl)benzamide] | 7.01 | 6.08 | 13.188
COCCOc1ncc(Cl)cc1C(=O)NC1N=C(c2c(Cl)cc(Cl)cc2CN2CCOCC2)c2ccccc2NC1=O (stereo not drawn) [Example 51, 5-Chloro-N-(5-(2,4-dichloro-6-(morpholinomethyl)phenyl)-2-oxo-2,3-dihydro-1H-benzo[e][1,4]diazepin-3-yl)-2-(2-methoxyethoxy)nicotinamide] | 5.91 | 6.55 | >25
CO[C@@H](C)COc1ncc(F)cc1C(=O)NC1N=C(c2c(Cl)cc(Cl)cc2Cl)c2ccccc2NC1=O (stereo partly drawn) [Example 35, 5-Fluoro-2-((S)-2-methoxypropoxy)-N-(2-oxo-5-(2,4,6-trichlorophenyl)-2,3-dihydro-1H-benzo[e][1,4]diazepin-3-yl)nicotinamide] | 7.05 | 6.73 | 24.614
CCOCCOc1ncc(F)cc1C(=O)N[C@@H]1N=C(c2c(Cl)cc(Cl)cc2Cl)c2ccccc2NC1=O [Example 66, (R)-2-(2-Ethoxyethoxy)-5-fluoro-N-(2-oxo-5-(2,4,6-trichlorophenyl)-2,3-dihydro-1H-benzo[e][1,4]diazepin-3-yl)nicotinamide] | 5.65 | 6.79 | 16.686
COCCOc1ccc(Cl)cc1C(=O)N[C@H]1N=C(c2c(Cl)cc(Cl)cc2Cl)c2ccccc2NC1=O [Example 59, (S)-5-Chloro-2-(2-methoxyethoxy)-N-(2-oxo-5-(2,4,6-trichlorophenyl)-2,3-dihydro-1H-benzo[e][1,4]diazepin-3-yl)benzamide] | 7.06 | 7.34 | >25
CC(=O)NCCCOc1ccc(Cl)cc1C(=O)NC1N=C(c2c(Cl)cc(Cl)cc2Cl)c2ccccc2NC1=O (stereo not drawn) [Example 25, 2-(3-Acetamidopropoxy)-5-chloro-N-(2-oxo-5-(2,4,6-trichlorophenyl)-2,3-dihydro-1H-benzo[e][1,4]diazepin-3-yl)benzamide] | 6.34 | 6.24 | 12.774
COCCN(C)c1ncc(F)cc1C(=O)N[C@@H]1N=C(c2c(Cl)cc(Cl)cc2Cl)c2ccccc2NC1=O [Example 68, (R)-5-Fluoro-2-((2-methoxyethyl)(methyl)amino)-N-(2-oxo-5-(2,4,6-trichlorophenyl)-2,3-dihydro-1H-benzo[e][1,4]diazepin-3-yl)nicotinamide] | 5.29 | 6.44 | 16.618
CN(CCOCC1CC1)c1ncc(F)cc1C(=O)NC1N=C(c2c(Cl)cc(Cl)cc2Cl)c2ccccc2NC1=O (stereo not drawn) [Example 46, 2-((2-(Cyclopropylmethoxy)ethyl)(methyl)amino)-5-fluoro-N-(2-oxo-5-(2,4,6-trichlorophenyl)-2,3-dihydro-1H-benzo[e][1,4]diazepin-3-yl)nicotinamide] | 6.78 | 6.82 | 15.961
COCCOc1ncc(F)cc1C(=O)N[C@H]1N=C(c2c(Cl)cc(Cl)cc2Cl)c2ccccc2NC1=O [Example 63, (S)-5-Fluoro-2-(2-methoxyethoxy)-N-(2-oxo-5-(2,4,6-trichlorophenyl)-2,3-dihydro-1H-benzo[e][1,4]diazepin-3-yl)nicotinamide] | 7.30 | 8.01 | 17.386
COCCOCCOc1ncc(F)cc1C(=O)NC1N=C(c2c(Cl)cc(Cl)cc2Cl)c2ccccc2NC1=O (stereo not drawn) [Example 37, 5-Fluoro-2-(2-(2-methoxyethoxy)ethoxy)-N-(2-oxo-5-(2,4,6-trichlorophenyl)-2,3-dihydro-1H-benzo[e][1,4]diazepin-3-yl)nicotinamide] | 6.99 | 6.58 | 23.09
CCN(CCOC)c1ncc(F)cc1C(=O)NC1N=C(c2c(Cl)cc(Cl)cc2Cl)c2ccccc2NC1=O (stereo not drawn) [Example 43, 2-(Ethyl(2-methoxyethyl)amino)-5-fluoro-N-(2-oxo-5-(2,4,6-trichlorophenyl)-2,3-dihydro-1H-benzo[e][1,4]diazepin-3-yl)nicotinamide] | 6.69 | 6.10 | 23.97
CCOc1cc(Cl)cc(Cl)c1C1=NC(NC(=O)c2cc(F)ccc2OCCOC)C(=O)Nc2ccccc21 (stereo not drawn) [Example 56, N-(5-(2,4-Dichloro-6-ethoxyphenyl)-2-oxo-2,3-dihydro-1H-benzo[e][1,4]diazepin-3-yl)-5-fluoro-2-(2-methoxyethoxy)benzamide] | 6.81 | 7.41 | 11.349
COCCOc1ccc(Cl)cc1C(=O)NC1N=C(c2c(Cl)cccc2Cl)c2ccccc2NC1=O (stereo not drawn) [Example 47, 5-Chloro-N-(5-(2,6-dichlorophenyl)-2-oxo-2,3-dihydro-1H-benzo[e][1,4]diazepin-3-yl)-2-(2-methoxyethoxy)benzamide] | 6.83 | 6.23 | >25
CCOCCCOc1ncc(F)cc1C(=O)NC1N=C(c2c(Cl)cc(Cl)cc2Cl)c2ccccc2NC1=O (stereo not drawn) [Example 39, 2-(3-Ethoxypropoxy)-5-fluoro-N-(2-oxo-5-(2,4,6-trichlorophenyl)-2,3-dihydro-1H-benzo[e][1,4]diazepin-3-yl)nicotinamide] | 7.02 | 7.18 | 11.83
CCCCOCCOc1ccc(Cl)cc1C(=O)NC1N=C(c2c(Cl)cc(Cl)cc2Cl)c2ccccc2NC1=O (stereo not drawn) [Example 10, 2-(2-Butoxyethoxy)-5-chloro-N-(2-oxo-5-(2,4,6-trichlorophenyl)-2,3-dihydro-1H-benzo[e][1,4]diazepin-3-yl)benzamide] | 6.12 | 6.47 | >25
O=C(NC1N=C(c2c(Cl)cc(Cl)cc2Cl)c2ccccc2NC1=O)c1cc(Cl)ccc1OCC1CCCO1 (stereo not drawn) [Example 9, 5-Chloro-N-(2-oxo-5-(2,4,6-trichlorophenyl)-2,3-dihydro-1H-benzo[e][1,4]diazepin-3-yl)-2-((tetrahydrofuran-2-yl)methoxy)benzamide] | 6.53 | 6.21 | >25
COCCOc1ncc(Cl)cc1C(=O)NC1N=C(c2c(Cl)cc(Cl)cc2Cl)c2ccccc2NC1=O (stereo not drawn) [Example 32, 5-Chloro-2-(2-methoxyethoxy)-N-(2-oxo-5-(2,4,6-trichlorophenyl)-2,3-dihydro-1H-benzo[e][1,4]diazepin-3-yl)nicotinamide] | 6.75 | 6.87 | >25
CC(C)COCCOc1ccc(Cl)cc1C(=O)NC1N=C(c2c(Cl)cc(Cl)cc2Cl)c2ccccc2NC1=O (stereo not drawn) [Example 6, 5-Chloro-2-(2-isobutoxyethoxy)-N-(2-oxo-5-(2,4,6-trichlorophenyl)-2,3-dihydro-1H-benzo[e][1,4]diazepin-3-yl)benzamide] | 6.15 | 6.07 | 10.604
